Columns and labels:
[1] = test system: jejunal glucose transport; conditions: cited from earlier work; for glucose absorption: young growing mice, exogenous administration
[2] = Broiler chick body weight after in ovo administration; type: in vivo, broiler chicks
Method: (§1) To test this hypothesis, the following study was carried out: Four hundred and sixty eggs were randomly divided into two groups and administered either saline (control) or PYY (600 μg/kg egg weight) into the air cell on day 18 of incubation. At hatching 420 chicks were vent sexed, wing-banded, weighed and randomly placed by treatment and sex into 60 pens of 7 chicks each. Pens were equipped with chick founts, nipple drinkers, and feeders. […] The light cycle was 23 light and 1 dark for the entire experiment.
(§2) Chicks were fed a starter diet (22% CP) for the first 3 weeks and a grower diet (20% CP) for the remaining 3 weeks. Individual chicks were weighed weekly and pen feed consumption recorded as feeders were refilled. At week six, all birds were weighed and euthanized with CO2. Data were statistically analyzed using the General Linear Models Procedure of SAS (1988) with treatment, sex, room and pen as the main effects. Differences were considered significant at P<0.05.
(§3) Weight gain and Feed Conversion Ratio (FCR) were evaluated in broiler chicks treated in ovo with PYY as described in Example 1. Although there were sex differences (P<0.05) for many of the growth and performance parameters, there were no sex x treatment interactions (P<0.05). Therefore, data from both sexes was combined.

[3] = Broiler chick Feed Conversion Ratio (FCR) after in ovo administration; type: in vivo, broiler chicks
Method: as §1, §2, §3

[4] = in vivo
Method: as §1, §2, §3

## epidermal growth factor (NSDSECPLSHDGYCLHDGVCMYIEALDKYACNCVVGYIGERCQYRDLKWWELR; Epidermal growth factor; UniProt P01133 971-1023, looked up) [EGF, epidermal growth factor, peptide administered in ovo as comparison treatment]
[1]
  glucose absorption: increases glucose absorption

## PYY: 36 amino acid peptide hormone produced by L type endocrine cells, member of the pancreatic polypeptide family; term covers PYY-I and PYY-II [Peptide YY]
[1]; mice treated with PYY
  active jejunal glucose transport: increase in active jejunal glucose transport
  intestinal energy expenditure: without any increase in intestinal energy expenditure
  passive transport rates: without a corresponding increase in passive transport rates
[1]
  glucose absorption: increases glucose absorption
[2]; hatch and week 1 of age, in ovo injection
  body weights vs saline control (FIG. 1): significantly (P<0.05) greater
[2]; week 1, 600 μg/kg egg weight into air cell on day 18 of incubation, vs saline
  body weight, heavier than chicks from control eggs: 2.7%
[2]; weeks 3 and 6, data not shown
  broiler weights vs control: No statistical differences
[3]; one week of age, 600 μg/kg egg weight in ovo
  FCR, less than chicks from saline treated eggs: 3.99%
[3]; week 1, in ovo injection
  FCR vs saline control (FIG. 2): significantly lower (P<0.05)
[3]; weeks 3 and 6, data not shown
  FCR vs control: No differences
[4]
  Mortality: less than 1%
  Mortality, difference between treatments: did not differ significantly between treatments

— US5916869A, “Method of treating birds in ovo” (North Carolina State University, priority 1997, dated 1999)
